Measurements as given in a melting point compilation (Tetko et al.; mined from patent text by program, amines drawn as free bases though some values may be those of a salt).

| Structure (SMILES) | melting point |
| --- | --- |
| CCNC1C(C)CN(c2c(F)c(N)c3c(=O)c(C(=O)O)cn(C4CC4)c3c2OC)CC1C (stereo unspecified) | 202 to 204 °C |
| COc1cc2c(cc1OC)CC(O)(CC(=O)O)CC2 (stereo unspecified) | 100 to 102 °C |
| OCCC1Cc2ccccc2C1O (stereo unspecified) | 80 to 82 °C |
| O=C(O)c1c2n(c3cc(N4CCN(CCO)CC4)c(F)cc3c1=O)CCS2 | 256 °C |
| CCCC(=O)Nc1ccc(-n2cc(CCCOc3c(CC(=O)O)cccc3OC)c(C(C)C)n2)nc1 | 119 to 120 °C |
| CN1C(=O)C(NC(=O)Nc2ccccc2)N(C)C1=O (stereo unspecified) | 188 to 189 °C |
| CCOC(=O)NCCc1cc2ccccc2s1 | 65 to 66 °C |
| CCCCCC(=O)c1cn(S(=O)(=O)c2ccc(C)cc2)c2ccccc12 | 91 to 93 °C |
| COc1cn(-c2ccc(-n3cc(F)c(F)c3)cc2OCC(F)(F)F)nc(-c2ccnn2-c2ccccc2)c1=O | 220 to 222 °C |
| CC(=O)c1ccc(-c2cc(-c3nc4ccccc4c(=O)n3-c3ccc(Cl)cc3)sc2N2CCOCC2)cc1 | 222 to 226 °C |
| Nc1nc2ccc(Oc3ccc(F)cc3)cc2s1 | 126 to 128 °C |
| CC(C)c1ccc(C2c3[nH]c4ccccc4c3CCN2C(=O)C=Cc2cccc([N+](=O)[O-])c2)cc1 (stereo unspecified) | 195 °C |
| CCCCCCC(=O)NCCO | 91 to 93 °C |
| CCSC(=O)N(C=C(C#N)C#N)c1cccc(Cl)c1 | 68 °C |
| FC(F)(F)c1cccc(-c2ccnc(S)n2)c1 | 200 to 205 °C |
| CCCCCCCC(CCCCCCCCC(CCCCCCC)NC(C)=O)NC(C)=O (stereo unspecified) | 158 to 162 °C |
| CCCc1nc2c(N)nc3ccc(-c4cccc(NS(C)(=O)=O)c4)cc3c2s1 | 244 to 246 °C |
| COCCCNC(=O)c1ccc(C(=O)N2CCN(c3ncccc3NC(C)C)CC2)nc1 | 95 to 96 °C |
| COC(=O)C(=O)c1cc[nH]c1 | 112 °C |
| CC(C)CCNc1nc(N2CCCCC2)nc2c(NCCC(C)C)nc(N3CCCCC3)nc12 | 192 to 194 °C |
| CCC1(c2cccc(S(=O)(=O)c3ccc(C(C)(C)C)cc3)c2)COC(C)(C)O1 (stereo unspecified) | 108 to 110 °C |
| CC(C)c1cccc(C(C)C)c1NC(=O)NC1CCC(C(C)(C)C)CC1 (stereo unspecified) | 264 to 266 °C |
| Cc1[nH]c(C=O)c(C)c1CNC(=O)C(F)(F)F | 200 °C |
| N#Cc1ccc(C2C(=O)N(Cc3ccccc3)Cc3cncn32)cc1 (stereo unspecified) | 163 to 165 °C |
| COC(=O)Nc1ccc(OC(=O)OC)cc1 | 75 to 76 °C |
| NC1([C@@H]2CCN(c3nc4c(cc3F)c(=O)c(C(=O)O)cn4[C@@H]3C[C@@H]3F)C2)CC1 | 232 to 234 °C |

| Structure (SMILES) | melting point |
| --- | --- |
| CS(=O)c1nc(-c2ccccc2)c(-c2ccccc2)o1 (stereo unspecified) | 75 to 78 °C |
| NC(=O)c1cc(C(=O)N(CCO)CCO)cc([N+](=O)[O-])c1 | 151 °C |
| CSc1c(C=O)c(=O)n(C)c(=O)n1C | 104 °C |
| O=C(O)c1ccc(Oc2nn(Cc3ccccc3)c3ccccc23)o1 | 162 to 165 °C |
| N#CCNC(=O)c1ncn2c1CN(C(=O)N1CCCC1)c1ccccc1-2 | 241 to 242 °C |
| CN(C)CCSc1nc2ccccc2n1CCc1ccccc1 | 38 to 39 °C |
| Nc1nccn2nc(SCc3ccccc3)nc12 | 144 to 145 °C |
| CCNS(=O)(=O)c1cc(C)c2cc(C(C)C)ccc(C)c1-2 | 96 to 98 °C |
| CN1C[C@H](CN2CCN(C(c3ccccc3)c3ccccc3)CC2)C[C@@H]2c3cccc4[nH]c(Cl)c(c34)C[C@H]21 | 250 °C |
| CCN(CC)C(N)=C(C#N)C(N)=S | 151 to 152 °C |
| CCOC(=O)C1=C2COCCN2C(C)=C(C(=O)OC)C1c1ccccc1Cl (stereo unspecified) | 141 to 143 °C |
| CCOc1ccc2[nH]c(=O)n(CCN(C(C)C)C(C)C)c2c1 | 89 °C |
| O=c1n(-c2ccc(Cl)cc2)c(=O)n(SC(Cl)(Cl)Cl)n1SC(Cl)(Cl)Cl | 169 °C |
| COc1ccc(C(=O)NC(=O)Nc2cc3c(cc2F)/C(=C/c2[nH]c(C)c(CCC(=O)O)c2C)C(=O)N3)c(F)c1 | > 300 °C |
| CCOC(=O)c1cc2c(cn1)[nH]c1ccc(N)c(N3CCCCC3)c12 | 188 to 190 °C |
| CCOC(=O)c1nc2cc(F)ccc2nc1CC | 42 to 45 °C |
| CN(C)C=CC(=O)C1CC1 | 55 °C |
| COCn1cnc(Cl)c1Cl | 41 to 44 °C |
| C=C(C)C(=O)N=c1ccn(-c2ccccc2)nc1 | 136 °C |
| O=C1Nc2cc(F)ccc2OC1CCO (stereo unspecified) | 126 to 130 °C |
| N#CCc1cccc(C(=O)c2ccc(Cl)cc2)c1N | 181 to 182 °C |
| Cc1cccc(N(CCC(=O)O)Cc2ccc3nc(N)n(Cc4nc(C)ccc4O)c3c2)c1 | 165 °C |
| NC(=O)c1c(NC(=O)C2CC2)sc2c(O)c(Br)ccc12 | 235 to 236 °C |
| CCC(=O)Nc1c([N+](=O)[O-])cnn1-c1nc(Cl)c(C(F)(F)F)cc1Cl | 148 to 154 °C |
| Nc1cc(O)cc2cc(-c3ccc(O)cc3)oc12 | 251 to 254 °C |
| CCCc1nc(C(C)(C)O)c(C(=O)OCOC(=O)C(C)(C)C)n1Cc1ccc(-c2ccccc2C(=O)O)cc1 | 170 to 173 °C |

| Structure (SMILES) | melting point |
| --- | --- |
| COC=C(C(=O)OC)c1csc2ccc(CBr)cc12 | 124 to 125 °C |
| Fc1cc(-n2cc(CN=C=S)nn2)cc(F)c1N1CCOCC1 | 135 °C |
| Cc1ccc(C(O)(c2ccc(C)cc2)C2CCNCC2)cc1 | 150 to 153 °C |
| Cc1c(C(=O)N[C@H](C(=O)O)c2ccc(OCc3ccccc3)cc2)oc2cc(-c3ccc(Cl)cc3)ccc12 | 178 °C |
| Cn1cc(OS(C)(=O)=O)c(=O)c2cc(F)ccc21 | 188 to 189 °C |
| CCOC(=O)C(Cc1cc(OC)ccc1OC)C(C)=O (stereo unspecified) | 68 to 69 °C |
| O=C(Nc1ccccc1)O[C@@H]1CN2CCC1CC2 | 129 to 130 °C |
| CCOC(=O)C(C)Oc1ccc(-c2nc(-c3ccc(C)cc3C)nc(-c3ccc(C)cc3C)n2)c(O)c1 (stereo unspecified) | 120 to 122 °C |
| COC[C@H](C1CC1)n1cc(Br)nc(Br)c1=O | 98.5 to 100 °C |
| Cc1ccc(S(=O)(=O)O[C@H](Cc2ccccc2)C(=O)NCCc2ocnc2C(=O)OCc2ccccc2)cc1 | 96 to 98 °C |
| COc1ccc(-c2nc(C(=O)O)cn2-c2ccc(OC)cc2)cc1 | 102 to 105 °C |
| COc1ccc(C(=C/C=C/C(=O)Nc2ccc(-c3cccnc3)cc2)c2ccc(OC)cc2)cc1 | 210 to 212 °C |
| O=S(=O)(c1ccc(O)cc1)c1ccc2cc(Br)ccc2c1 | 178 to 180 °C |
| NC(=O)c1ccc(F)c2c1OCC(N(CCCCc1c[nH]c3ccc(F)cc13)CC1CC1)C2 (stereo unspecified) | 116 °C |
| CC(=O)N1c2ccc(-c3ccc(-c4nnn[nH]4)cc3)cc2C(Nc2ccc(Cl)cc2)CC1C (stereo unspecified) | 250 °C |
| C#CCOc1ccc(CCNC(=O)C(=O)c2ccc(-c3ccc(Cl)cc3)cc2)cc1OC | 122 to 124 °C |
| CCN(CC)C(=O)n1ccc(S(=O)(=O)c2cc(Cl)ccc2C)n1 | 96 to 97 °C |
| COC/C=C(C)/C=C/C(F)=C(C)/C=C/c1c(C)sc(C)c1C | 117 to 118 °C |
| CC1Oc2ccc(Br)c(C=NO)c2O1 (stereo unspecified) | 208 to 209 °C |
| CC(=O)C(=Cc1c(-c2ccccc2)nc2sc(C)nn12)C(=O)N(C)C | 185 to 187 °C |
| COCCOC/C(=C\S(=O)(=O)c1ccccc1)C(=O)OC(C)(C)C | 46 to 48 °C |
| O=C(Nc1cccc2c3c(oc12)CCC=C3)c1c(Cl)cccc1Cl | 165 to 167 °C |
| COc1ccccc1OCCCc1oc(N2CCOCC2)nc1-c1ccc(Cl)cc1 | 81 to 82 °C |
| O=C(CCc1ccc2c(c1)CCCC2)N1C(=O)OC[C@@H]1Cc1ccccc1 | 92 to 93 °C |
| CCOC(=O)C(=Cc1cccn2cc(-c3cccc(OC)c3)nc12)N=[N+]=[N-] | 109 to 111 °C |
| Cc1c(-c2ccccc2)oc2c(C(=O)NCCCN3CCN(c4ccccc4O)CC3)cccc2c1=O | 118 to 120 °C |

| Structure (SMILES) | melting point |
| --- | --- |
| CCOC(=O)c1cn(-c2ccncc2F)c2nc(Cl)c(F)cc2c1=O | 226 °C |
| CCC(C)(C)C1=CC(=CC(=O)O)C=C(C(C)(C)CC)C1=O | 109 to 110 °C |
| O=C(c1[nH]c2ccc(F)cc2c1Sc1ccccc1)N1CCCC1 | 184 to 186 °C |
| CCCCCCCCCCCCc1ccccc1C(Sc1nc(C)c(C(=O)O)n1C)C(=O)O (stereo unspecified) | 104 to 106 °C |
| Cc1ccc(-n2nccn2)c(C(=O)O)c1 | 168 °C |
| O=C(NC(=O)c1c(F)cccc1F)Nc1ccc2c(c1)C(F)(F)C(F)(F)O2 | 183 to 184 °C |
| CC1Cc2c(c(Br)cc(F)c2-n2c(=O)cc(C(F)(F)F)n(C)c2=O)O1 (stereo unspecified) | 66 to 75.5 °C |
| CC(=O)OC1CSC(Oc2ccc(I)nc2Cl)C(OC(C)=O)C1OC(C)=O (stereo unspecified) | 188 °C |
| CC(=O)Nc1ccc([N+](=O)[O-])cc1O | > 250 °C |
| CC1(C)CC(=O)c2c(NCc3ccco3)sc(-c3cc[nH]n3)c2C1 | 204 to 206 °C |
| CC1(C)CCC(C)(C)c2cc3[nH]c(-c4ccc(C(=O)O)cc4)cc3cc21 | 294 to 296 °C |
| COC(=O)c1ccc(S(C)(=O)=O)cc1N | 98.3 to 98.5 °C |
| CC(C)C(C)CNC(=O)c1ccc2c(c1)N(C(C)CN1CCCC1)c1ccccc1S2 (stereo unspecified) | 138 °C |
| CCOC(=O)Cc1ccc(NC(=O)C(COc2ccccc2)NS(=O)(=O)c2ccc(F)cc2)cc1 (racemic) | 122 to 124 °C |
| O=C(O)C(OCc1ccc(-c2ccc(Cl)cc2)cc1)(C(F)(F)F)C(F)(F)F | 90 to 92 °C |
| COC(=O)c1cn2c3c(c(OS(C)(=O)=O)c(F)cc3c1=O)CCN2C | 247 to 250 °C |
| Cc1ccc(C(=O)N(C)C2CCCCC2)cc1 | 70 to 71 °C |
| Cc1cc(C)n(-c2ccc(C(N)=O)nn2)n1 | 256 to 257 °C |
| CCOC(=O)CCCCCC(=O)NCc1cccc2c1C(=O)N(C1CCC(=O)NC1=O)C2=O (stereo unspecified) | 82 to 84 °C |
| O=C(O)c1c2n(c3cc(N4CCOCC4)c(F)cc3c1=O)CS2 | 244 to 248 °C |
| CCOC(=O)c1cnc2ccc(C(F)(F)F)cc2c1O | > 260 °C |
| COc1cc(COc2nn(-c3ccccc3)cc2/C=C/c2csc(C(C)C)n2)ccc1OCc1nc(-c2ccc(CC(=O)O)cc2)oc1C | 107 to 109 °C |
| S=C1NCC(Cn2cncn2)(c2ccc(Cl)cc2Cl)O1 (stereo unspecified) | 232 to 235 °C |
